In brackets after ≈: the same amount, converted by molar mass.
Tests used:
[1] = Thermodynamic solubility profiling; assay type: physicochemical; details: 24 h at rt
Description: A 50 mM DMSO stock solution of test compound was prepared, and from this, a working solution of 1 mM was prepared by dilution with DMSO. The UV absorbance of working solution was scanned from 220 nm to 1000 nm to identify the wavelength maxima of test compound. The 1 mM working solution was then serially diluted in DMSO to different concentrations to determine linearity/calibration curve. […] The resulting solution was then kept on a RotoSpin shaker at 50 rpm for 24 h at rt before the solution was filtered using 0.45 micron PVDF injector filters in order to remove the insoluble fraction of the compound. Subsequently, 150 uL of the filtrate is taken for quantification using a UV spectrophotometer, acquiring the optical density of standard solutions and test compound at the same wavelength maxima. From the optical density of test compound the thermodynamic solubility is calculated using the linearity/calibration curve and expressed as micromolar (μM). Solubility profiles of certain compounds of the invention are detailed in Table 6.

[2] = Pharmacokinetic profiling in cynomolgus monkey; assay type: in vivo, male Cynomolgus Monkeys; details: male, plasma, acidified saline
Description: (§1) Following dosing by the routes above blood samples were taken at several time points (typically pre-dose, 0.083, 0.25, 0.5 1, 2, 4, 8 and 24 h) via serial tail vein bleeds (rat) or cephalic or saphenous vein (monkey) from the animal and centrifuged to separate plasma for analysis by LC/MS/MS assay. WinNonlin v6.2 statistics software (Pharsight Corporation, California, USA) was used to generate pharmacokinetic parameters using the non-compartmental model.

human CGRP receptor = biological target: T1, human CGRP receptor (Homo sapiens, UniProt O60894+Q16602); experiment: cAMP functional assay (HTRF) in SK-N-MC cells; assay type: cell-based; details: read-out: pKb average (converted)
T1 construct: The human neuroblastoma cell line SK-N-MC endogenously expressing the human CGRP receptor; endogenous in cells; host or cells: SK-N-MC human neuroblastoma cells
T1 sequence (Q16602 23-461): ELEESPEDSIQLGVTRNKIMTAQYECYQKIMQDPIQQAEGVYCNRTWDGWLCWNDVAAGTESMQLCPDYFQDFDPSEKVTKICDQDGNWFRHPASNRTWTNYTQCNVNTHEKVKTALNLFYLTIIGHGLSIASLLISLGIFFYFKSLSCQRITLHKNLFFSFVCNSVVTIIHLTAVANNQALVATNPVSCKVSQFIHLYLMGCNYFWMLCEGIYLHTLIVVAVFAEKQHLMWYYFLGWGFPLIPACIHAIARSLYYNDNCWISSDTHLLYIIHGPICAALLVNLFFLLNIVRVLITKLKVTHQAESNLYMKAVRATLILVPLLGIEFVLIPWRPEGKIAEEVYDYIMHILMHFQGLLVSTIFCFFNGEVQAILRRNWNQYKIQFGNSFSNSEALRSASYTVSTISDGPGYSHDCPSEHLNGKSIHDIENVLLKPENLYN
T1 sequence (O60894 27-148): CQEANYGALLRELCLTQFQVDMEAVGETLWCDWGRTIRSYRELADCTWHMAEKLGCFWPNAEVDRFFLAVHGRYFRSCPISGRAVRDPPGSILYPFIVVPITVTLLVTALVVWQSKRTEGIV
Description: cAMP production following receptor activation was determined using the Homogeneous Time-Resolved Fluorescence (HTRF) cAMP dynamic-2 assay (Cisbio, France). The human neuroblastoma cell line SK-N-MC endogenously expressing the human CGRP receptor was seeded at a density of 12,500 cells/well in solid walled 96 well half area plates (Costar, Catalog Number 3688, Corning Life Sciences, Germany). After 16 h incubation at 37° C. media was removed and cells were incubated at 37° C. for 30 min in serum free media containing 500 μM IBMX (Tocris, Abingdon, UK, Catalog Number 2845) and increasing concentrations of test antagonist. Following this cells were challenged with an EC80 concentration of human CGRP (0.3 nM) for a further 30 min at 37° C. and then cAMP production was determined as manufacturer's instructions before plates were read on a PheraStar fluorescence plate reader (BMG LabTech, Germany). IC50 values were derived from the inhibition curve. The pIC50 values (where pIC50=−log10 IC50) were converted to a functional pKb value using a modified Cheng-Prussoff equation where Kd=agonist EC50 and L hot=agonist challenge concentration. The pKb values of certain compounds of the invention are detailed in Table 3.

[3] = Pharmacokinetic profiling in rat; assay type: in vivo, male Sprague Dawley rats; details: male, Sprague Dawley, plasma, inhaled or intranasal
Description: Prior to IN dosing rats were anaesthetised with an intramuscular dose of 25-30 mg/kg ketamine cocktail (ketamine, xylazine hydrochloride and acepromazine maleate in saline) and the dose is introduced over 20-30 s via a polyethylene PE-10 tube inserted approximately 5 mm into the nasal cavity of the rat.
as §1

[4] = biological target: T2, Human CGRP receptors (consisting of CRLR and RAMP1) (Homo sapiens, UniProt O60894+Q16602); experiment: Radioligand binding assay (3H-telcagepant displacement); details: 0.5 nM 3H-telcagepant, Sf21 cell membranes, Ki by Cheng-Prussoff; read-out: pKi average (converted)
T2 construct: made in house; host or cells: Sf21 insect cells (baculovirus, pFastBac dual vector); membrane homogenates
T2 sequence (Q16602 23-461): as the sequence (Q16602 23-461) above
T2 sequence (O60894 27-148): as the sequence (O60894 27-148) above
Description: Human Calcitonin Receptor Like Receptor (CRLR) and human RAMP1 were cloned into Invitrogen's (ThermoFisher Scientific, UK) pFastBac dual expression vector. Transposition of CRLR/RAMP1 DNA was performed using Invitrogen's Bac-to-Bac Baculovirus Expression Systems. P0 baculovirus was generated by transfecting SF9 cells with bacmid DNA using Cellfectin® II transfection reagent (ThermoFisher Scientific, UK, catalog number 10362-100). Following P0 generation P1 virus was then generated ready for large scale infection and membrane preparation. Sf21 cells were grown in expression medium ESF921 (Expression Systems, USA, catalog number 96-001-01) supplemented with 10% heat-inactivated FBS and 1% Pen/Strep and were infected at a cell density of 2.5×10^6 cells/mL and an MOI of 2. Expression was carried out over 48 h in a shaking incubator set at 27° C. The cell culture was centrifuged at 2,500 rcf for 10 min at 4° C. The pellets were resuspended in cold PBS supplemented with Roche's Complete EDTA-free protease inhibitor cocktail tablets (Roche Applied Sciences, catalog number 05056489001), 1 mM PMSF and 1 mM EDTA. The resuspended cell paste was then centrifuged at 3,273 rcf for 12 min at 4° C. The supernatant was discarded and the pellet frozen at −80° C. The cell pellet from a 4 L culture was resuspended in buffer containing 50 mM Hepes pH 7.5, 150 mM NaCl, 8 Roche EDTA-free protease inhibitor cocktail tablets and 1 mM PMSF. The suspension was left stirring at rt for 1 h and then homogenised for 90 s at 9,500 rpm using a VDI 25 (VWR, USA) homogeniser. The cells were then lysed using a Microfluidizer processor M-110L Pneumatic (Microfluidics, USA). After lysis, the mixture was homogenised for 90 s at 9,500 rpm and then centrifuged at 335 rcf for 10 min. The supernatant was then further ultra-centrifuged at 42,000 rpm for 90 min. […]
Human CGRP receptors (consisting of CRLR and RAMP1) expressed in insect Sf21 cell membrane homogenates were re-suspended in the binding buffer (10 mM HEPES, pH 7.4, 5 mM MgCl2, 0.2% BSA) to a final assay concentration of […]. Saturation isotherms were determined by the addition of various concentrations of ^3H-telcagepant (Ho et al, The Lancet, 2008, 372, 2115) (in a total reaction volume of 250 μL) for 60 min at rt. […] Non-specific binding (NSB) was measured in the presence of 10 nM MK-3207 hydrochloride (CAS No. 957116-20-0). Radioactivity on the filter was counted (1 min) on a microbeta counter after addition of 50 μL of scintillation fluid. […] IC50 values were derived from the inhibition curve and the affinity constant (Ki) values were calculated using the Cheng-Prussoff equation (Cheng et al, Biochem. Pharmacol. 1973, 22, 3099-3108). […]

[5] = aqueous buffer, thermodynamic from solid, pH 6 (Sodium Phosphate Buffer)
[6] = aqueous buffer, thermodynamic from solid, pH 7.4 (PBS buffer)

Row | Compound | solubility thermodynamic at 24 h [1, 5] [µM] | solubility thermodynamic at 24 h [1, 6] [µM] | clearance ([2]; Cynomolgus monkey iv, 1 mg/kg) [mL/min/kg] | bioavailability ([2]; Cynomolgus monkey sc, 0.5 mg/kg) [%] | Kb (human CGRP receptor) [nM] | bioavailability [3] [%] | Ki [4] [nM] | solubility thermodynamic at 24 h ([1]; pH 6 (Sodium Phosphate Buffer)) [µM] | solubility thermodynamic at 24 h ([1]; pH 7.4 (PBS buffer)) [µM]
1 | CN[C@H](C)C(=O)N1CCC2(CC1)CCN(C(=O)[C@@H](Cc1cc(C)c3[nH]ncc3c1)NC(=O)N1CCC(c3cc4ccccc4[nH]c3=O)CC1)C2 [Example 2, N-[(2R)-1-[8-(N-methyl-D-alanyl)-2,8-diazaspiro[4.5]dec-2-yl]-3-(7-methyl-1H-indazol-5-yl)-1-oxopropan-2-yl]-4-(2-oxo-1,2-dihydroquinolin-3-yl)piperidine-1-carboxamide] | 1290 (≈ 876 µg/mL) | 800 (≈ 545 µg/mL) | 8 | 100 | 1.26 | 20 | – | – | –
2 | CN[C@H](C)C(=O)N1CCC2(CC1)CCN(C(=O)[C@@H](Cc1cc(C)c3[nH]ncc3c1)NC(=O)N1CCC(n3c(=O)[nH]c4ncccc43)CC1)C2 [Example 3, N-[(2R)-1-[8-(N-methyl-D-alanyl)-2,8-diazaspiro[4.5]dec-2-yl]-3-(7-methyl-1H-indazol-5-yl)-1-oxopropan-2-yl]-4-(2-oxo-2,3-dihydro-1H-imidazo[4,5-b]pyridin-1-yl)piperidine-1-carboxamide] | 1430 (≈ 961 µg/mL) | 1550 (≈ 1040 µg/mL) | – | – | 0.631 | – | 0.0794 | – | –
3 | CN[C@H](C)C(=O)N1CCC2(CC1)CCN(C(=O)[C@@H](Cc1cc(C)c3[nH]ncc3c1)NC(=O)N1CCC(N3Cc4ccccc4NC3=O)CC1)C2 [Example 6, N-[(2R)-1-[8-(N-methyl-D-alanyl)-2,8-diazaspiro[4.5]dec-2-yl]-3-(7-methyl-1H-indazol-5-yl)-1-oxopropan-2-yl]-4-(2-oxo-1,4-dihydroquinazolin-3(2H)-yl)piperidine-1-carboxamide] | 1500 (≈ 1020 µg/mL) | 1570 (≈ 1070 µg/mL) | – | – | 0.631 | – | – | – | –
4 | Cc1cc(C[C@@H](NC(=O)N2CCC(n3c(=O)[nH]c4ncccc43)CC2)C(=O)N2CCC3(CCN(c4ccncc4)CC3)C2)cc2cn[nH]c12 [Example 7, N-{(2R)-3-(7-methyl-1H-indazol-5-yl)-1-oxo-1-[8-(pyridin-4-yl)-2,8-diazaspiro[4.5]dec-2-yl]propan-2-yl}-4-(2-oxo-2,3-dihydro-1H-imidazo[4,5-b]pyridin-1-yl)piperidine-1-carboxamide] | 3630 (≈ 2400 µg/mL) | 2160 (≈ 1430 µg/mL) | – | – | 0.398 | – | 0.0501 | – | –
5 | CN[C@H](C)C(=O)N1CCC2(CC1)CCN(C(=O)[C@@H](Cc1cc(C)c3[nH]ncc3c1)NC(=O)N1CCC3(CC1)OC(=O)Nc1ncccc13)C2 [Example 5, N-[(2R)-1-[8-(N-methyl-D-alanyl)-2,8-diazaspiro[4.5]dec-2-yl]-3-(7-methyl-1H-indazol-5-yl)-1-oxopropan-2-yl]-2′-oxo-1′,2′-dihydro-1H-spiro[piperidine-4,4′-pyrido[2,3-d][1,3]oxazine]-1-carboxamide] | 1580 (≈ 1060 µg/mL) | 1460 (≈ 979 µg/mL) | – | – | 0.501 | – | 0.1 | – | –
6 | NCCCC[C@H](NC(=O)[C@@H](Cc1cc(Br)c(O)c(Br)c1)NC(=O)N1CCC(N2Cc3ccccc3NC2=O)CC1)C(=O)N1CCN(c2ccncc2)CC1 [olcegepant, reference compound] | – | – | – | – | – | – | – | 150 (≈ 130 µg/mL) | 431 (≈ 375 µg/mL)
7 | Cc1cc(C[C@@H](NC(=O)N2CCC(N3Cc4ccccc4NC3=O)CC2)C(=O)N2CCC3(CCN(C4CCNCC4)CC3)C2)cc2cn[nH]c12 [Example 4, N-{(2R)-3-(7-methyl-1H-indazol-5-yl)-1-oxo-1-[8-(piperidin-4-yl)-2,8-diazaspiro[4.5]dec-2-yl]propan-2-yl}-4-(2-oxo-1,4-dihydroquinazolin-3(2H)-yl)piperidine-1-carboxamide] | 1350 (≈ 918 µg/mL) | 1150 (≈ 783 µg/mL) | – | – | 0.794 | – | 0.0794 | – | –
8 | Cc1cc(C[C@@H](NC(=O)N2CCC(n3c(=O)[nH]c4ncccc43)CC2)C(=O)N2CCC3(CCN(C4CCNCC4)CC3)C2)cc2cn[nH]c12 [Example 1, N-{(2R)-3-(7-methyl-1H-indazol-5-yl)-1-oxo-1-[8-(piperidin-4-yl)-2,8-diazaspiro[4.5]dec-2-yl]propan-2-yl}-4-(2-oxo-2,3-dihydro-1H-imidazo[4,5-b]pyridin-1-yl)piperidine-1-carboxamide] | 1030 (≈ 688 µg/mL) | – | – | – | 0.251 | – | – | – | –

— patent US10259812B2, “CGRP receptor antagonists” (Heptares Therapeutics Limited, priority 2015, dated 2019)
